Blank lines part the entries; values can stand above or below the compound they belong to. Activity calls are given as the source filed them. The rule behind the calls is not given here.
How the values were obtained:
[1] = target: Maternal embryonic leucine zipper kinase (Homo sapiens, UniProt Q14680); experiment: Inhibition of His6-tagged MELK catalytic domain (1 to 340 residues) (unknown origin) expressed in Escherichia coli BL21 (DE3) cells using Bcl-GL as substrate measured after 30 mins in presence of [gamma32P]ATP by liquid scintillation counting method
Sequence of Maternal embryonic leucine zipper kinase (Q14680 whole entry, the tested form may be a part): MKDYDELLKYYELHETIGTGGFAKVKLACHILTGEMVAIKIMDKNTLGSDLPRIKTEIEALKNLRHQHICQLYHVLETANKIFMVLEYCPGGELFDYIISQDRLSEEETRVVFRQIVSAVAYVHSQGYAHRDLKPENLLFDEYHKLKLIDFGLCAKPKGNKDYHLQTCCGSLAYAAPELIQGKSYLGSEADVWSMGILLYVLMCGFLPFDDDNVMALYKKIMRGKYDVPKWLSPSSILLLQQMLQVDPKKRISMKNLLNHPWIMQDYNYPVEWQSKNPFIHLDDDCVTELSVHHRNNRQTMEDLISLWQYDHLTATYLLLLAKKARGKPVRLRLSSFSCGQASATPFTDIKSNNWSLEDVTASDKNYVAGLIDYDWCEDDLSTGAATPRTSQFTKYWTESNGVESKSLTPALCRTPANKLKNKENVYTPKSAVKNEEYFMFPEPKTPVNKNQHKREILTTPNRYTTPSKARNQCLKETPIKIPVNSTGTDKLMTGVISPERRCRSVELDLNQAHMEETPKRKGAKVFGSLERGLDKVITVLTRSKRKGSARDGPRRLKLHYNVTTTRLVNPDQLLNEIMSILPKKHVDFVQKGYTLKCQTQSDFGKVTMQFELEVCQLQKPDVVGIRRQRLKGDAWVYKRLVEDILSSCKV

[2] = system: SUM-159-PT; experiment: Antiproliferative activity against human SUM159 cells up to 20 uM after 72 hrs by CellTitre-Blue assay; format: functional, cell-based
[3] = system: HCC70; experiment: Antiproliferative activity against human HCC70 cells up to 20 uM after 72 hrs by CellTitre-Blue assay; format: functional, cell-based
[4] = target: AMP-activated protein kinase, AMPK; experiment: Inhibition of AMPK (unknown origin) using SAMS peptide as substrate measured after 30 mins in presence of [gamma32P]ATP by liquid scintillation counting method; design: species or system Homo sapiens
[5] = target: Mitogen-activated protein kinase 1 (Homo sapiens, UniProt P28482); experiment: Inhibition of ERK2 (unknown origin) using Ets-1 as substrate measured after 30 mins in presence of [gamma32P]ATP by liquid scintillation counting method
Sequence of Mitogen-activated protein kinase 1 (P28482 whole entry): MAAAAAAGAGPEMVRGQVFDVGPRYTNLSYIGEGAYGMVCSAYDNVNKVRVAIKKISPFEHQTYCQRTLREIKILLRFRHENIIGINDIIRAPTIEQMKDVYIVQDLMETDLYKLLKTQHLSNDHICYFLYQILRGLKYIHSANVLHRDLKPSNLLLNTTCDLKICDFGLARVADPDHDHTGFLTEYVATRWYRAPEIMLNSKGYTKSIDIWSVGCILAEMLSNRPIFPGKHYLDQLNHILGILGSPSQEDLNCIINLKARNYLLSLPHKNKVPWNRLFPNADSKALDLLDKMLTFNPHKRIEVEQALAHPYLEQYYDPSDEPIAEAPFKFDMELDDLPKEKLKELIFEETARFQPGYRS

[6] = system: BT-549; experiment: Antiproliferative activity against human BT549 cells up to 20 uM after 72 hrs by CellTitre-Blue assay; format: functional, cell-based
[7] = system: MCF-10A; experiment: Antiproliferative activity against human MCF10A cells at 10 uM after 72 hrs by CellTitre-Blue assay; format: functional, cell-based

IC50 [1]: > 5 µM
Ki [1]: > 0.65 µM
Structure (SMILES): CN1CCN(CC(=O)N(C)c2ccc(N/C(=C3\C(=O)Nc4cc(C(=O)NCCCN)ccc43)c3ccccc3)cc2)CC1

Ki [4]: 0.0092 µM
Ki [5]: 3 µM
Structure (SMILES): COC(=O)c1ccc2c(c1)/C(=C(/Nc1ccc(N(C)C(=O)CN3CCN(C)CC3)cc1)c1ccccc1)C(=O)N2
Activity [2]: Active
Activity [3]: Active
Activity [6]: Active
Activity [7]: inactive

Ki [4]: 0.0049 µM
Ki [5]: 19 µM
Structure (SMILES): CN1CCN(CC(=O)N(C)c2ccc(N/C(=C3\C(=O)Nc4ccc(C(=O)O)cc43)c3ccccc3)cc2)CC1

Ki [4]: 0.0042 µM
Structure (SMILES): CN1CCN(CC(=O)N(C)c2ccc(N/C(=C3\C(=O)Nc4ccccc43)c3ccccc3)cc2)CC1

— ChEMBL document CHEMBL4028816, “Discovery of a potent inhibitor of MELK that inhibits expression of the anti-apoptotic protein Mcl-1 and TNBC cell growth” (Bioorg Med Chem, 2017)
